Source: US9580427B2, “Kinase inhibitors” (The Regents of the University of California, priority 2011, dated 2017)

Tests used:
[1] = molecular target: T1, Btk (human, full length) (Homo sapiens, UniProt Q06187); assay: Btk in vitro kinase activity assay (32P-ATP, poly[Glu:Tyr]); type: biochemical; conditions: 30 min pre-incubation with inhibitor, 5 nM Btk
T1 construct: Btk (human, full length) was purchased (Invitrogen, catalog number PV3363); purchased Invitrogen PV3363
Description: General Procedure for Btk In Vitro Kinase Activity Assay.
Btk (human, full length) was purchased (Invitrogen, catalog number PV3363) and used following a procedure modified from the product literature. […] Subsequently, Btk (5 nM final concentration) in kinase assay buffer supplemented with BSA (0.1 mg/mL) was pre-incubated with inhibitors (six or ten concentrations, in duplicate, 5% DMSO final concentration) for 30 minutes at room temperature. Kinase reactions were initiated by the addition of 0.16 μCi/μL of γ-^32P-ATP (6000 Ci/mmol, NEN) and 0.2 mg/mL substrate (poly[Glu:Tyr], 4:1 Glu:Tyr) and incubated for 30 minutes at room temperature. Kinase activity was determined by spotting 5 μL of each reaction onto sheets of phosphocellulose. Each blot was washed once with 10% AcOH solution, twice with 0.1% H3PO4 solution, and once with MeOH (5-10 minutes per wash). Dried blots were exposed for 30 minutes to a storage phosphor screen and scanned by a Typhoon imager (GE Life Sciences). The data were quantified using ImageQuant (v. 5.2, Molecular Dynamics) and plotted using GraphPad Prism 4.0 software.

[2] = molecular target: BTK (Homo sapiens, UniProt Q06187); assay: Reversibility of binding: compound in solution before and after perturbation of the target (HPLC-MS/MS)
Description: The following approach was developed to differentiate compounds that form irreversible bonds with their targets, such as acrylamide compounds, from compound that bind reversibly. […] The reactions were then treated with perturbations including both denaturation with 5 M guanidine hydrochloride and digestion with trypsin, disrupting proper folding of the target. […] The concentration of compound in solution was assessed both preceding and following perturbation using high performance liquid chromatography (HPLC) coupled to tandem mass spectrometry.

T1 sequence (Q06187 whole entry): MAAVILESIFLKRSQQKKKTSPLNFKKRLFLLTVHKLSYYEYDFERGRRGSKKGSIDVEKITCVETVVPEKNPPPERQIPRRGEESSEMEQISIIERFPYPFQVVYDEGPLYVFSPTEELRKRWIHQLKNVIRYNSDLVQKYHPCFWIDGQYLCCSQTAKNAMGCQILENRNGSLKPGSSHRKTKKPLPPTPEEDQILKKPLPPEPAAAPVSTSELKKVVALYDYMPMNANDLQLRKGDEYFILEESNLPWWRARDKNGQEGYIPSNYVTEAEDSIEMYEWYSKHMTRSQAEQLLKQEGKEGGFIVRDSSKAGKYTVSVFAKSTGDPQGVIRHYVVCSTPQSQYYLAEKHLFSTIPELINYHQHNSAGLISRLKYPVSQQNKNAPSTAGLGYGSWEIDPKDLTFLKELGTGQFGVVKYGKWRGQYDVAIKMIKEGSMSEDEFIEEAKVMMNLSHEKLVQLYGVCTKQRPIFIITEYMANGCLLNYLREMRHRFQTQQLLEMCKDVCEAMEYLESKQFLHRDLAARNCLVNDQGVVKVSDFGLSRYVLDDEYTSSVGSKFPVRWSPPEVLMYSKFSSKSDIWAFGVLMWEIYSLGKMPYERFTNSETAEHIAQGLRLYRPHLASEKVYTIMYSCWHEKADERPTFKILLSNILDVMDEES
Chain of BTK (Q06187 whole entry): as above

| IC50 [1] | Compound in solution in the denatured or digested state? ([2]; after 5 M guanidine hydrochloride denaturation and trypsin digestion) | Compound in solution in the native state? ([2]; protein target in excess over compound, native state) | Structure (SMILES) |
| --- | --- | --- | --- |
| < 0.1 µM |  |  | N#C/C(=C\c1ccccc1)C(=O)N1CCCC(n2nc(-c3ccc(Oc4ccccc4)cc3)c3c(N)ncnc32)C1 (centres unmarked) |
| < 0.1 µM |  |  | N#C/C(=C\c1ccccc1Cl)C(=O)N1CCCC(n2nc(-c3ccc(Oc4ccccc4)cc3)c3c(N)ncnc32)C1 (centres unmarked) |
| < 0.1 µM |  |  | N#C/C(=C\C1CC1)C(=O)N1CC[C@@H](n2nc(-c3ccc(Cl)cc3)c3c(N)ncnc32)C1 |
| < 0.1 µM |  |  | N#C/C(=C\C1CC1)C(=O)N1CCCC(n2nc(-c3ccc(Cl)cc3)c3c(N)ncnc32)C1 (centres unmarked) |
| < 1 µM |  |  | N#C/C(=C\C1CC1)C(=O)N1CC[C@@H](n2nc(-c3ccc(Oc4ccccc4)cc3)c3c(N)ncnc32)C1 |
| < 1 µM |  |  | N#C/C(=C\C1CC1)C(=O)N1CC[C@H](n2nc(-c3ccc(Oc4ccccc4)cc3)c3c(N)ncnc32)C1 |
| < 0.1 µM |  |  | CN(C)C(C)(C)/C=C(\C#N)C(=O)N1CCC[C@@H](n2nc(-c3ccc(Oc4ccccc4)cc3)c3c(N)ncnc32)C1 |
| < 1 µM |  |  | CC(C)(/C=C(\C#N)C(=O)N1CCC[C@@H](n2nc(-c3ccc(Oc4ccccc4)cc3)c3c(N)ncnc32)C1)CO |
| < 1 µM |  |  | N#C/C(=C\C1CC1)C(=O)N1CCC(n2nc(-c3ccc(Oc4ccccc4)cc3)c3c(N)ncnc32)CC1 |
| < 1 µM |  |  | N#C/C(=C\C1CC1)C(=O)N1CCC(Cn2nc(-c3ccc(Oc4ccccc4)cc3)c3c(N)ncnc32)CC1 |
| < 1 µM |  |  | N#C/C(=C\C1CC1)C(=O)N[C@H]1CC[C@@H](n2nc(-c3ccc(Oc4ccccc4)cc3)c3c(N)ncnc32)CC1 |
| < 1 µM |  |  | N#C/C(=C\C1CC1)C(=O)N1CCCC(Cn2nc(-c3ccc(Oc4ccccc4)cc3)c3c(N)ncnc32)C1 (centres unmarked) [drawing 184] |
|  | yes | no | N#C/C(=C\C1CC1)C(=O)N1CCCC(Cn2nc(-c3ccc(Oc4ccccc4)cc3)c3c(N)ncnc32)C1 (centres unmarked) [drawing 187] |
